Reference: paper PMC11557590 (Nature Communications, 2024)

Target: FLAGELLIN-SENSING 2 (FLS2) (Arabidopsis thaliana, UniProt Q9FL28)
Assay: microscale thermophoresis
Assay type: binding

FLAGELLIN-SENSING 2 (FLS2), sequence (Q9FL28 24-804): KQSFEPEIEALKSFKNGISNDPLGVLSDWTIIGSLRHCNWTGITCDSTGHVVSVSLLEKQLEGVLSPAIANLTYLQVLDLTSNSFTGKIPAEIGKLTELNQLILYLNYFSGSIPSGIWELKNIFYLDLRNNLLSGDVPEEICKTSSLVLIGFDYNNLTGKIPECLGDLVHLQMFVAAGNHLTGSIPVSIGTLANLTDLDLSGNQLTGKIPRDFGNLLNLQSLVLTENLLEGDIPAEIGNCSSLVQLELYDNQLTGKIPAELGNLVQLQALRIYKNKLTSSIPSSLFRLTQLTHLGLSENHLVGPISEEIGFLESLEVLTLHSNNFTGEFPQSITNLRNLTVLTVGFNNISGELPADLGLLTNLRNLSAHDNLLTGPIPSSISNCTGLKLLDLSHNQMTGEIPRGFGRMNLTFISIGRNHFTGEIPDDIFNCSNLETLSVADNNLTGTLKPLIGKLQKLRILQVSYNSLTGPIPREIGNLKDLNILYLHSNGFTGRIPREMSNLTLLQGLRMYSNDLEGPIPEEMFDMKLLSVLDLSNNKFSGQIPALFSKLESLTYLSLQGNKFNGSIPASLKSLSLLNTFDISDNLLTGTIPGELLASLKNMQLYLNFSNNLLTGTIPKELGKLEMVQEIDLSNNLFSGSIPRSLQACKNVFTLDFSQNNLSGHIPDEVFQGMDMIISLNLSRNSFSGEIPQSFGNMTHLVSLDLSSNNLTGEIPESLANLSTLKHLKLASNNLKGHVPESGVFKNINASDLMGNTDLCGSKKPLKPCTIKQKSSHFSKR

Molecule `C=C(C)COc1ccc2c(C)c(CC(=O)N3CCN(CC(=O)NCCN(C)C)CC3)c(=O)oc2c1C` [FIC04] has a Kd of 93.9 ± 19.5 µM.
